# Data published in article PMC13224100, “Esterase-Responsive Mitochondria-Targeted Hydropersulfide Donors Mitigate Doxorubicin Cardiotoxicity While Preserving Anticancer Activity” (Angewandte Chemie (International ed. in English), 2025).
# Tests used:
# H9c2 cells [1] = experiment: Cytoprotection against DOX-induced toxicity, CCK-8 assay; assay type: cell-based; conditions: 4 h pretreatment, then 24 h co-treatment with DOX 5 μM
# Method: (§1) We evaluated the cytoprotective effects of RSSH precursors against DOX-induced cardiotoxicity in H9c2 cardiomyoblasts. First, we assessed the cytotoxicity of the RSSH donors (AST-2, APT-1, AST-2-TPP, and APT-1-TPP) using the CCK-8 assay.[24] […] To evaluate cytoprotection, H9c2 cells were pretreated with RSSH donors for 4 h, followed by 24 h co-treatment with DOX (5 μM). As expected, DOX alone reduced cell viability to ca. 50% (Figure 4a). […] Although both compounds were protective, no enhancement of potency was observed upon TPP conjugation. […] A distinctive feature of our study is the direct comparison between mitochondria-targeted and non-targeted RSSH donors. […] TPP conjugation only modestly enhances the cytoprotective effects of RSSH donors under our experimental conditions. This outcome may reflect the intrinsic high efficacy of non-targeted RSSH donors, thereby limiting the additional benefit of mitochondrial targeting.
# (§2) Figure 4. Protective effects of RSSH donors against DOX-induced cytotoxicity in H9c2 cells. Cells were pretreated with RSSH donors for 4 h, followed by exposure to DOX (5 μM) for an additional 24 h. Cell viability was assessed using the cell counting Kit-8 (CCK-8) assay. Results are expressed as mean ± SEM, n = 3; *P < 0.05, **P < 0.01, ***P < 0.001, ****P < 0.0001. Ctl = vehicle-treated group (0.01% DMSO in medium). […]
# (§3) Cytoprotective Effects of RSSH Donors against Doxorubicin Toxicity
# (§4) Cytoprotective studies were performed as previously described.[8] Briefly, H9c2 cells, HepG2 cells, MDA-MB-468 cells, and MCF-7 cells were seeded at a density of 7 x 10^3 cells/well. […] Additionally, in the vehicle control group, cells were treated with medium (DMEM with 10% FBS) containing 0.01% DMSO only. The cells were then further incubated for an additional 4 h before being treated with DOX (10 μL/well, with final concentration of 5 μM). After a 24 h co-incubation with DOX, each well was carefully washed three times with PBS (pH 7.4) and 100 μL o f F B S-free medium containing 10% v/v CCK-8 (Dojindo) was added. The plates were then incubated for 1-2 h before measuring absorbance at […]
# (§5) The relative % cell viability was calculated as 100 times the ratio of Abs450 (RSSH donor + DOX-exposed) to Abs450 (vehicle, non-DOX-exposed). Each treatment condition was performed in 6 technical replicates per biological replicate, and the experiment was independently repeated three times (n = 3 biological replicates). Data are presented as mean ± SEM. […]
# [2] = Aqueous stability of RSSH precursors in PBS; assay type: physicochemical; conditions: PBS pH 7.4, 37 °C, over 9 h
# Method: We synthesized AST-2 as an esterase-sensitive RSSH donor via reaction of N-acetylpenicillamine methyl ester with methoxycarbonyl sulfenyl chloride in dichloromethane at 0 °C, affording the product in 72% yield (see Scheme S1). We first evaluated the aqueous stability of AST-2 in phosphate-buffered saline (PBS, pH 7.4) at 37 °C.
# APT-1 was synthesized in 93% overall yield via a one-pot two-step sequence: N-acetylpenicillamine methyl ester was reacted with chlorocarbonylsulfenyl chloride to afford an S-perthiocarbonyl chloride intermediate, which was subsequently treated with 2-acetoxy-N-methylethan-1-aminium chloride in the presence of triethylamine (see Supporting Information).
# We first evaluated the aqueous stability of the mitochondria-targeted analogs AST-2-TPP and APT-1-TPP. […] APT-1-TPP similarly retained excellent stability, with < 5% degradation over 41 h (Figure S1D).
# H9c2 cells [3] = experiment: Mitochondrial membrane potential (TMRM) under DOX; assay type: cell-based; conditions: DOX 5 μM, 24 h, TMRM
# Method: (§6) Figure 6. a) Basal sulfane sulfur (SS) levels in H9c2 cardiomyocyte, MDA-MB-468, MCF-7, and HepG2 cell lines as detected by SSP4 fluorescence. b) Representative images and c) basal levels of mitochondrial membrane potential (MMP) in H9c2 and cancer cells (MDA-MB-468, MCF-7, and HepG2). d) Impact of APT-1 (25 μM) or APT-1-TPP (25 μM) on MMP in DOX (5 μM)-treated (d) H9c2 and e) HepG2 cells. Impact of APT-1 (25 μM) and APT-1-TPP (25 μM) on ATP levels in DOX (5 μM)-treated f) H9c2 and g) HepG2 cells. Results are expressed as mean ± SEM, n = 3–6; *P < 0.05, **P < 0.01, ***P < 0.001, ****P < 0.0001. Significances in (a) and (c) are presented with respect to H9c2 cells.
# (§7) We then examined how RSSH donors influence MMP during DOX exposure. As expected, DOX alone induced mitochondrial depolarization in H9c2 cells, reducing MMP to ca. 50% of control (Figure 6d). […] To complement these observations, we quantified intracellular ATP levels as a functional readout of mitochondrial activity. […]
# Mitochondrial Membrane Potential Measurements
# Mitochondrial membrane potential was measured using Image-iT™ TMRM Reagent (Cat#I34361, Invitrogen, USA) according to the manufacturer's protocols. […]
# The cells were incubated for an additional 24 h. After completion of treatment, cells were washed with a warm clear DMEM medium (with 10% FBS) and incubated in culture media containing TMRM (working solution 100 nM) for 30 min at 37 °C. Cells were then washed with a warm clear FBS-free DMEM medium (3 times) before imaging. Images were obtained with Zeiss LSM 800 with AiryScan Confocal (λex = 548 nm, λem = 573 nm). During each experiment, 6 field images were obtained for each experimental group. Images were analyzed using Image J software, and all cells in each image were selected for fluorescence intensity measurement (cell-free space was also measured as blank). H9c2 signal intensity was set to 100% and signal intensity for all the other cell lines was shown as a percentage of that of H9c2.
# The experiments were independently repeated three times (n = 3 biological replicates). Data are […]
# Figure S24. Representative TMRM images for mitochondrial membrane potential (MMP) in H9c2 and HepG2 cells with APT-1 and APT-1-TPP treatment under DOX stress. Ctl = vehicle (medium with 0.01% […]
# (1 picture or pasted object on this page, not shown here)
# [4] = Cytoprotection against DOX-induced toxicity, CCK-8 assay; assay type: cell-based; conditions: rat, H9c2 cells; DOX 5 μM, 24 h, CCK-8; read-out: cell viability, DOX alone
# Method: as §1, §2, §3, §4, §5
# H9c2 cells [5] = experiment: Intracellular ATP levels (CellTiter-Glo) under DOX; assay type: cell-based; conditions: DOX 5 μM, 24 h
# Method: as §6, §7
# Briefly, H9c2 cells and HepG2 cells were seeded in 96-well white-bottom plate (Alkali Scientific, SKU:TPW9096, TC-treated) at 5000 cells/well. After treatment (Ctrl, 5 μM DOX alone, 4 h pretreatment of 25 μM APT-1 + 24 h cotreatment with 5 μM DOX, and 4 h pretreatment of 25 μM APT-1-TPP + 24 h cotreatment with 5 μM DOX, in clear DMEM medium with 10% FBS), cells were equilibrated at rt for 30 min before CellTiter-Glo® reagent was added to each well. Plates were then placed on an orbital shaker for 2 min and incubated at rt for another 20 min.
# Chemiluminescence was measured using Tecan plate reader (SPARK Part No. 30124664 Version 1.7, serial No. 1909010319). Cellular AT P concentration was calculated based on the AT P calibration curve and normalized to cell count. […] Each treatment condition was performed in 6 technical replicates per biological replicate, and the experiment was independently repeated three times (n = 3 biological replicates).
# Data are presented as mean ± SEM. […]
structure (smiles),measurement,setting,value
"COC(=O)[C@@H](NC(C)=O)C(C)(C)S [Pen-SH, N-acetyl penicillamine methyl ester, reference compound]",protection against DOX-induced cytotoxicity,H9c2 cells [1],failed to mitigate DOX-induced cytotoxicity
"COC(=O)C(NC(C)=O)C(C)(C)SSC(=O)Oc1ccccc1 (centres unmarked) [AST-1, reference compound]",decomposition (aqueous stability),[2],complete degradation
"COc1cccc2c1C(=O)c1c(O)c3c(c(O)c1C2=O)C[C@@](O)(C(=O)CO)C[C@@H]3O[C@H]1C[C@H](N)[C@H](O)[C@H](C)O1 [DOX, Doxorubicin]","MMP, DOX alone",H9c2 cells [3],ca. 50 % of control
same,"viability at 24 h, 5 µM",[4],~50%
same,"ATP level, DOX alone",H9c2 cells [5],significantly depleted ATP
